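Five compound concentrations were applied to cells in 96-well plates for 48 hours; endpoints were derived by simple linear interpolation of the resulting dose-response curve. TGI: concentration producing complete growth inhibition.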
Key:
Assay in all cases: NCI tumour cell line growth inhibition, 48 h
SW-620 colon = test system: SW-620 colon
CAKI-1 renal = test system: CAKI-1 renal
SF-295 CNS = test system: SF-295 CNS
DMS 114 small cell lung = test system: DMS 114 small cell lung
LOX IMVI melanoma = test system: LOX IMVI melanoma
RPMI-8226 leukemia = test system: RPMI-8226 leukemia
ACHN renal = test system: ACHN renal
OVCAR-5 ovarian = test system: OVCAR-5 ovarian
LXFL 529 NSCLC = test system: LXFL 529 NSCLC
SF-539 CNS = test system: SF-539 CNS
NCI-H226 lung = test system: NCI-H226 lung
SN12C renal = test system: SN12C renal
SK-MEL-28 melanoma = test system: SK-MEL-28 melanoma
HCT-15 colon = test system: HCT-15 colon
A498 renal = test system: A498 renal
UO-31 renal = test system: UO-31 renal
A549 NSCLC = test system: A549 NSCLC
HT29 colon = test system: HT29 colon
NCI-H522 lung = test system: NCI-H522 lung
SK-OV-3 ovarian = test system: SK-OV-3 ovarian
TK-10 renal = test system: TK-10 renal
CCRF-CEM leukemia = test system: CCRF-CEM leukemia
SK-MEL-5 melanoma = test system: SK-MEL-5 melanoma
U251 CNS = test system: U251 CNS
IGROV1 ovarian = test system: IGROV1 ovarian
UACC-62 melanoma = test system: UACC-62 melanoma
HCC-2998 colon = test system: HCC-2998 colon
UACC-257 melanoma = test system: UACC-257 melanoma
DMS 273 small cell lung = test system: DMS 273 small cell lung
M14 melanoma = test system: M14 melanoma
K-562 leukemia = test system: K-562 leukemia
HOP-18 NSCLC = test system: HOP-18 NSCLC
DLD-1 colon = test system: DLD-1 colon
OVCAR-3 ovarian = test system: OVCAR-3 ovarian
HL-60(TB) leukemia = test system: HL-60(TB) leukemia
HCT-116 colon = test system: HCT-116 colon
COLO 205 colon = test system: COLO 205 colon
RXF-631 renal = test system: RXF-631 renal
RXF 393 renal = test system: RXF 393 renal
786-0 renal = test system: 786-0 renal
EKVX NSCLC = test system: EKVX NSCLC
OVCAR-4 ovarian = test system: OVCAR-4 ovarian
OVCAR-8 ovarian = test system: OVCAR-8 ovarian
MOLT-4 leukemia = test system: MOLT-4 leukemia
SNB-19 CNS = test system: SNB-19 CNS
SNB-78 CNS = test system: SNB-78 CNS
NCI-H460 lung = test system: NCI-H460 lung
MALME-3M melanoma = test system: MALME-3M melanoma
SK-MEL-2 melanoma = test system: SK-MEL-2 melanoma
SNB-75 CNS = test system: SNB-75 CNS
KM12 colon = test system: KM12 colon
HOP-92 NSCLC = test system: HOP-92 NSCLC
KM20L2 colon = test system: KM20L2 colon
SF-268 CNS = test system: SF-268 CNS
M19-MEL melanoma = test system: M19-MEL melanoma
NCI-H23 lung = test system: NCI-H23 lung
HOP-62 NSCLC = test system: HOP-62 NSCLC

COc1c(CC(C)=O)ccc2c1C(=O)c1ccc(C=O)c(OC(C)=O)c1C2=O
TGI (SW-620 colon): 33.7 µM
TGI (CAKI-1 renal): 47 µM
TGI (SF-295 CNS): 53.3 µM
TGI (DMS 114 small cell lung): 33.2 µM
TGI (LOX IMVI melanoma): 40.3 µM
TGI (RPMI-8226 leukemia): 63.3 µM
TGI (ACHN renal): 51.3 µM
TGI (OVCAR-5 ovarian): 30.3 µM
TGI (LXFL 529 NSCLC): 19.4 µM
TGI (SF-539 CNS): 20.8 µM
TGI (NCI-H226 lung): 36.2 µM
TGI (SN12C renal): 27.6 µM
TGI (SK-MEL-28 melanoma): 23 µM
TGI (HCT-15 colon): 29.5 µM
TGI (A498 renal): 80.3 µM
TGI (UO-31 renal): 41.4 µM
TGI (A549 NSCLC): > 100 µM
TGI (HT29 colon): 37.9 µM
TGI (NCI-H522 lung): 8.39 µM
TGI (SK-OV-3 ovarian): > 100 µM
TGI (TK-10 renal): 75.1 µM
TGI (CCRF-CEM leukemia): 55.9 µM
TGI (SK-MEL-5 melanoma): 27.8 µM
TGI (U251 CNS): 36.8 µM
TGI (IGROV1 ovarian): 44.2 µM
TGI (UACC-62 melanoma): 18.5 µM
TGI (HCC-2998 colon): 24.5 µM
TGI (UACC-257 melanoma): 28.3 µM
TGI (DMS 273 small cell lung): 24.5 µM
TGI (M14 melanoma): 25.6 µM
TGI (K-562 leukemia): > 100 µM
TGI (HOP-18 NSCLC): 40.6 µM
TGI (DLD-1 colon): 14.3 µM
TGI (OVCAR-3 ovarian): 35.3 µM
TGI (HL-60(TB) leukemia): 22.4 µM
TGI (HCT-116 colon): 24.9 µM
TGI (COLO 205 colon): 31.6 µM
TGI (RXF-631 renal): 47.8 µM
TGI (RXF 393 renal): 25.4 µM
TGI (786-0 renal): 21.4 µM
TGI (EKVX NSCLC): 56.9 µM
TGI (OVCAR-4 ovarian): 30.4 µM
TGI (OVCAR-8 ovarian): 97.3 µM
TGI (MOLT-4 leukemia): 47.6 µM
TGI (SNB-19 CNS): 57.4 µM
TGI (SNB-78 CNS): 55.6 µM
TGI (NCI-H460 lung): 63.2 µM
TGI (MALME-3M melanoma): 25.5 µM
TGI (SK-MEL-2 melanoma): 30.3 µM
TGI (SNB-75 CNS): 77.8 µM
TGI (KM12 colon): 39.2 µM
TGI (HOP-92 NSCLC): 44.1 µM
TGI (KM20L2 colon): 37.8 µM

CNC(=O)NCCCC(NC(C)=O)C(=O)NCc1ccccc1 (stereo not drawn)
TGI (SW-620 colon): > 100 µM
TGI (CAKI-1 renal): > 100 µM
TGI (SF-295 CNS): > 100 µM
TGI (DMS 114 small cell lung): > 100 µM
TGI (LOX IMVI melanoma): > 100 µM
TGI (SF-268 CNS): > 100 µM
TGI (RPMI-8226 leukemia): > 100 µM
TGI (ACHN renal): > 100 µM
TGI (OVCAR-5 ovarian): > 100 µM
TGI (LXFL 529 NSCLC): > 100 µM
TGI (SF-539 CNS): > 100 µM
TGI (NCI-H226 lung): > 100 µM
TGI (SN12C renal): > 100 µM
TGI (SK-MEL-28 melanoma): > 100 µM
TGI (HCT-15 colon): > 100 µM
TGI (A498 renal): > 100 µM
TGI (UO-31 renal): > 100 µM
TGI (A549 NSCLC): > 100 µM
TGI (HT29 colon): > 100 µM
TGI (NCI-H522 lung): > 100 µM
TGI (SK-OV-3 ovarian): > 100 µM
TGI (TK-10 renal): > 100 µM
TGI (CCRF-CEM leukemia): > 100 µM
TGI (SK-MEL-5 melanoma): > 100 µM
TGI (U251 CNS): > 100 µM
TGI (IGROV1 ovarian): > 100 µM
TGI (UACC-62 melanoma): > 100 µM
TGI (HCC-2998 colon): > 100 µM
TGI (UACC-257 melanoma): > 100 µM
TGI (DMS 273 small cell lung): > 100 µM
TGI (M14 melanoma): > 100 µM
TGI (K-562 leukemia): > 100 µM
TGI (DLD-1 colon): > 100 µM
TGI (OVCAR-3 ovarian): > 100 µM
TGI (HCT-116 colon): > 100 µM
TGI (COLO 205 colon): > 100 µM
TGI (RXF-631 renal): > 100 µM
TGI (RXF 393 renal): > 100 µM
TGI (786-0 renal): > 100 µM
TGI (EKVX NSCLC): > 100 µM
TGI (M19-MEL melanoma): > 100 µM
TGI (OVCAR-4 ovarian): > 100 µM
TGI (OVCAR-8 ovarian): > 100 µM
TGI (MOLT-4 leukemia): > 100 µM
TGI (NCI-H23 lung): > 100 µM
TGI (SNB-19 CNS): > 100 µM
TGI (SNB-78 CNS): > 100 µM
TGI (NCI-H460 lung): > 100 µM
TGI (HOP-62 NSCLC): > 100 µM
TGI (MALME-3M melanoma): > 100 µM
TGI (SK-MEL-2 melanoma): > 100 µM
TGI (SNB-75 CNS): > 100 µM
TGI (KM12 colon): > 100 µM
TGI (HOP-92 NSCLC): > 100 µM
TGI (KM20L2 colon): > 100 µM
